Experimental data from patent US12653788B2, “Pharmaceutical composition of a pyrazole compound dispersed in a polymer matrix” (Intervet Inc., priority 2019, dated 2026).

Key:
[1] = Oral bioavailability of the compound in dogs; details: dog, in vivo
Experimental: (§1) The poor water solubility results in poor oral bioavailability in dogs, often below 50%. The log P of the compound of Formula (I) is calculated to be 1.25 (Chem Draw and Insight for Excel). To increase solubilization and promote bioavailability, Applicants have dosed the compound in the amorphous state as part of an amorphous solid dispersion (ASD). […] Therefore, the ASD was manufactured by co-precipitation or cPAD (co-precipitated amorphous dispersion). In this process, the compound and a polymer were dissolved into a solvent. The compound-polymer solution was then rapidly precipitated in an anti-solvent under high shear in a rotor-stator homogenizer. and the compound-polymer amorphous solid dispersion was formed.

[2] = Solubility of the compound (water, volatile solvents); type: physicochemical
Experimental: as §1

[3] = In vitro anti-nucleating polymer screen in simulated gastric fluid (PION UV probe); type: physicochemical; details: only simulated gastric fluid (SGF) pH 1.8, no polymer; 2 hours, 272 nm
Experimental: FIG. 3—Several anti-nucleating polymers were assessed for ability to maintain the compound of Formula (I) in an in vitro screen.
In an attempt to improve the bioavailability of the compound of Formula (I) in animals administered in the fed state, anti-nucleating agents were added to the pharmaceutical composition to decrease the potential for crystallization of the compound. Several anti-nucleation polymers were assessed for ability to maintain the compound of Formula (I) in an in vitro screen. 0.5% solution of each anti-nucleating polymer was prepared in simulated gastric fluid, pH 1.8. 75 uL of 10 mg/mL API in DMSO was added into 5 mL of the 0.5% polymer solution and monitored by PION UV probe for 2 hours at 272 nm. […] When the other polymers were used, the concentration of the compound of Formula (I) was initially maintained but finally was reduced before the 2 hour test was completed.

cIL-31 induced pruritus = details: with respect to placebo, similar magnitude to oclacitinib (Apoquel); cited from earlier work

bioavailability [1]: < 50%
solubility in volatile solvents ([2]; isopropanol, acetone, dichloromethane): low solubility
water solubility ([2]; water): poorly water soluble
concentration of the compound of Formula (I) in control [3]: dropped almost immediately
SMILES: COc1cc(Nc2nn([C@H]3COCC[C@@H]3C#N)cc2C(N)=O)cc(F)n1 [compound of Formula (I), 1-[(3R,4S)-4-cyanotetrahydropyran-3-yl]-3-[(2-fluoro-6-methoxy-4-pyridyl)amino]pyrazole-4-carboxamide]
suppression of pruritus (cIL-31 induced pruritus): significantly suppressed pruritus
